Test results taken from paper PMC11100219, “Dual-function antimicrobial-antibiofilm peptide hybrid to tackle biofilm-forming Staphylococcus epidermidis” (Annals of Clinical Microbiology and Antimicrobials, 2024).
≈ marks a conversion by molar mass, not a printed value. Residues, ends and D or L forms follow the SMILES beside them.

How the values were obtained:
[1] = system: human red blood cells (hRBCs); test: Hemolysis activity (hemoglobin release); format: cell-based; details: 1 h, 37°C; for MHC, minimum hemolytic concentration: peptide concentration causing 10% hemolysis of hRBCs, 2% hRBCs in 10 mM PBS, OD405
Protocol: The effect of peptides on human red blood cells (hRBCs) was assessed by observing the release of hemoglobin upon treated with peptide. Briefly, the hRBCs were obtained from healthy volunteers and subsequently diluted in 10 mM PBS to a concentration of 2% hRBCs. An equal volume of 2% hRBCs and peptide at concentration of 0.98–250 µg/mL in 10 mM PBS mixtures were incubated for 1 h at 37°C. Following incubation, the suspension was centrifuged, then supernatants were collected and transferred to 96-well microplates for measurement of absorbance at OD of 405 nm (OD405). This study was performed in accordance with the Thammasat University Ethics Committee (COA No. 066/2562). Written informed consent was obtained from all volunteers.

[2] = system: Acinetobacter baumanii MT strain; test: Broth microdilution MIC / MBC; format: cell-based; details: 24 h, 37°C; for MIC: broth microdilution, MHB, 0.98-250 µg/mL, visible inspection; for MBC: plating of non-turbid wells on TSA
Protocol: (§1) The minimal inhibitory concentrations (MICs) of peptide derivatives versus planktonic bacteria were assessed using a modification of the broth microdilution assay previously described in the National Committee for Clinical Laboratory Standards (NCCLS). In brief, bacteria at mid-logarithmic growth were collected by centrifugation at 2,500 × g for 5 min. Subsequently, the pellet was resuspended and adjusted in Mueller-Hinton Broth (MHB; BD Bacto™, USA) to an OD620 of 0.05. Fifty µL of bacterial suspensions was transferred to 96-well microplates. Later, 50 µL of peptide derivatives at 0.98–250 µg/mL in 10 mM PBS, was added to wells and incubated for 24 h at 37°C with continuous shaking at 220 rpm. […] The experiments were done in three technical replicates and repeated independently.
(§2) To determine minimal bactericidal concentrations (MBCs) of the peptides, 50 µL of supernatant from non-turbid wells was plated on TSA, and the number of colony-forming units (CFUs) was observed after 24 h of incubation at 37°C. MBC was defined as the minimum concentration of peptide at which no bacterial colony was observed on the plate.

[3] = system: Bacillus cereus ATCC 11778; test: Broth microdilution MIC / MBC; format: cell-based; details: 24 h, 37°C; for MIC: broth microdilution, MHB, 0.98-250 µg/mL, visible inspection; for MBC: plating of non-turbid wells on TSA
Protocol: as §1, §2

[4] = system: Staphylococcus aureus ATCC 25923; test: Broth microdilution MIC / MBC; format: cell-based; details: 24 h, 37°C; for MIC: broth microdilution, MHB, 0.98-250 µg/mL, visible inspection; for MBC: plating of non-turbid wells on TSA
Protocol: as §1, §2

[5] = system: Escherichia coli ATCC 25922; test: Broth microdilution MIC / MBC; format: cell-based; details: 24 h, 37°C; for MIC: broth microdilution, MHB, 0.98-250 µg/mL, visible inspection; for MBC: plating of non-turbid wells on TSA
Protocol: as §1, §2

[6] = system: Staphylococcus epidermidis ATCC 35984; test: Broth microdilution MIC / MBC; format: cell-based; details: 24 h, 37°C; for MIC: broth microdilution, MHB, 0.98-250 µg/mL, visible inspection; for MBC: plating of non-turbid wells on TSA
Protocol: as §1, §2

[7] = system: Listeria monocytogenes 10403s; test: Broth microdilution MIC / MBC; format: cell-based; details: 24 h, 37°C; for MIC: broth microdilution, MHB, 0.98-250 µg/mL, visible inspection; for MBC: plating of non-turbid wells on TSA
Protocol: as §1, §2

[8] = system: Pseudomonas aeruginosa ATCC 27853; test: Broth microdilution MIC / MBC; format: cell-based; details: 24 h, 37°C; for MIC: broth microdilution, MHB, 0.98-250 µg/mL, visible inspection; for MBC: plating of non-turbid wells on TSA
Protocol: as §1, §2

[9] = system: Salmonella Typhimurium ATCC 13311; test: Broth microdilution MIC / MBC; format: cell-based; details: 24 h, 37°C; for MIC: broth microdilution, MHB, 0.98-250 µg/mL, visible inspection; for MBC: plating of non-turbid wells on TSA
Protocol: as §1, §2

[10] = system: all gram-positive bacterial strains; test: Mean MIC and therapeutic index, gram-positive strains; format: cell-based; details: four gram-positive strains
Protocol: as §1
(§3) The therapeutic index (TI) is widely used for evaluating a peptide’s efficacy and safety. It is the ratio between the minimum hemolytic concentration (MHC, the concentration causing 10% hemolysis) and the geometric mean (GM) value of the MIC [15]. […] While, both lysine-substituted peptides (BiF2_7K and BiF2_5K7K) had higher TIs against all tested biofilm-forming bacteria than did the two parent peptides, and the TI of BiF2_5K7K was higher than that of BiF2_7K.

[11] = system: S. epidermidis (ATCC 35984) biofilm; test: Biofilm-formation inhibitory activity, crystal violet staining; format: cell-based, Staphylococcus epidermidis; details: CV staining, TSB, 10^6 CFU/mL, 24 h, 37°C, 0.98-250 µg/mL; for MBIC50: minimum concentration inhibiting biofilm formation more than 50%; for MBIC90: minimum concentration inhibiting biofilm formation more than 90%
Protocol: The biofilm inhibitory activity of peptide derivatives was assessed by modified crystal violet (CV) staining. Briefly, the pellet of S. epidermidis (ATCC 35984) was collected through centrifugation of bacterial suspensions grown overnight at 2,500 × g for 5 min. Subsequently, the pellet was resuspended and diluted with TSB to a final concentration of 10^6 CFU/mL. Then, 50 µL of these diluted suspensions was transferred to 96-well microplates containing same volume of peptide derivatives in 10 mM phosphate buffer saline (PBS; Caisson Labs, USA), with concentrations ranging from 0.98 to 250 µg/mL. Vancomycin was used as positive control while TSB medium without bacteria was used as negative control. After 24 h of incubation and reaching static growth at 37°C, culture media as well as planktonic cells were removed, then the biofilm in each well was washed thrice with 0.85% NaCl. For CV staining, biofilms were fixed with 95% ethanol and stained with a 0.1% (v/v) CV solution for 15 min. After removal of excess dye, each well was washed thrice with 0.85% NaCl and resuspended in 95% ethanol to dissolve bound dye. Absorbance was determined at 570 nm using a Multiskan SkyHigh microplate reader (Thermo Scientific™, Singapore). All experiments were done in six technical replicates and repeated independently three times. Minimum biofilm inhibitory concentrations at 50% and 90% (MBIC50 and MBIC90) refers to concentrations of the peptide at which the inhibition of biofilm was at least 50% and 90%, respectively.

[12] = system: all gram-negative bacterial strains; test: Mean MIC and therapeutic index, gram-negative strains; format: cell-based; details: four gram-negative strains
Protocol: as §1, §3

Compound | MHC, minimum hemolytic concentration [1] | MIC [2] | MBC [2] | MIC [3] | MBC [3] | MIC [4] | MBC [4] | MIC [5] | MBC [5] | MIC [6] | MBC [6] | MIC [7] | MBC [7] | MIC [8] | MBC [8] | MIC [9] | MBC [9] | GM +, geometric mean of MIC values from all gram-positive bacterial strains [10] | MBIC50 [11] | MBIC90 [11] | also measured
CC[C@H](C)[C@H](NC(=O)[C@H](CC(C)C)NC(=O)[C@H](CCCCN)NC(=O)[C@@H](NC(=O)[C@H](CC(C)C)NC(=O)[C@@H](N)Cc1ccccc1)C(C)C)C(=O)N[C@@H](CC(C)C)C(=O)N[C@@H](CCCCN)C(=O)N[C@H](C(=O)N[C@@H](CC(C)C)C(=O)N[C@@H](CCCNC(=N)N)C(=O)N[C@@H](CCCNC(=N)N)C(N)=O)[C@@H](C)CC [BiF2] (H-FLVKLILKILRR-NH2; N-terminus assumed) | 1.95 µg/mL | 62.5 µg/mL (≈ 41.4 µM) | 62.5 µg/mL (≈ 41.4 µM) | 15.6 µg/mL (≈ 10.3 µM) | 15.6 µg/mL (≈ 10.3 µM) | 62.5 µg/mL (≈ 41.4 µM) | 62.5 µg/mL (≈ 41.4 µM) | 31.2 µg/mL (≈ 20.7 µM) | 31.2 µg/mL (≈ 20.7 µM) | 31.25 µg/mL (≈ 20.7 µM) | 62.5 µg/mL (≈ 41.4 µM) | 15.63 µg/mL (≈ 10.3 µM) | 31.25 µg/mL (≈ 20.7 µM) | 15.63 µg/mL (≈ 10.3 µM) | 31.25 µg/mL (≈ 20.7 µM) | 62.5 µg/mL (≈ 41.4 µM) | 62.5 µg/mL (≈ 41.4 µM) | 31.25 µg/mL | 125 µg/mL | 250 µg/mL | GM-, geometric mean of MIC values from all gram-negative bacterial strains [12]: 42.97 µg/mL
CC[C@H](C)[C@H](NC(=O)[C@H](CC(C)C)NC(=O)[C@H](CCCCN)NC(=O)[C@@H](NC(=O)[C@H](CC(C)C)NC(=O)[C@@H](N)Cc1ccccc1)C(C)C)C(=O)N[C@@H](CCCCN)C(=O)N[C@@H](CCCCN)C(=O)N[C@H](C(=O)N[C@@H](CC(C)C)C(=O)N[C@@H](CCCNC(=N)N)C(=O)N[C@@H](CCCNC(=N)N)C(N)=O)[C@@H](C)CC [BiF2_7K] (H-FLVKLIKKILRR-NH2; N-terminus assumed) | 15.63 µg/mL | 7.81 µg/mL (≈ 5.12 µM) | 7.81 µg/mL (≈ 5.12 µM) | 7.81 µg/mL (≈ 5.12 µM) | 7.81 µg/mL (≈ 5.12 µM) | 15.6 µg/mL (≈ 10.2 µM) | 15.6 µg/mL (≈ 10.2 µM) | 31.2 µg/mL (≈ 20.5 µM) | 31.2 µg/mL (≈ 20.5 µM) | 7.81 µg/mL (≈ 5.12 µM) | 7.81 µg/mL (≈ 5.12 µM) | 7.81 µg/mL (≈ 5.12 µM) | 7.81 µg/mL (≈ 5.12 µM) | 15.6 µg/mL (≈ 10.2 µM) | 15.6 µg/mL (≈ 10.2 µM) | 7.81 µg/mL (≈ 5.12 µM) | 15.63 µg/mL (≈ 10.2 µM) | 9.77 µg/mL | 3.91 µg/mL | 7.81 µg/mL | hemolytic activity ([1]; at 250 µg/mL (maximum concentration tested)): 60%; GM-, geometric mean of MIC values from all gram-negative bacterial strains [12]: 15.63 µg/mL
